Several values for one entry are separate records, joined by “and”; a condition that tells them apart may be missing. Identical values can stand only once.
Experiments:
Format in all cases: cell-based, human
HaCaT cells = experiment: Cytotoxicity assessment, EZ-Cytox assay, HaCaT cell growth rate; conditions: untreated = 100
Procedure: HaCaT cells, which are human epidermal keratinocytes, were distributed from Dr. C. G. Hyun (Jeju National University, Korea) and Dulbecco's Modified Eagle's Medium (DMEM) medium containing 100 units/ml of penicillin-streptomycin and 10% by volume of fetal bovine serum (FBS) was used and cultured at 37° C. and 5% CO2 incubator. Subculture was performed at intervals of 3 to 4 days.
The EZ-cytox assay is a representative method for measuring cell viability using the principle that water solution tetrazolium salt (WST) reacts with dehydrogenase of living cells to generate orange water-soluble formazan.
HaCaT cells were aliquoted in a 96-well plate at 1.0×10^4 cells/mL using DMEM medium supplemented with 10% by volume of FBS to check cytotoxicity and then cultured at 37° C., 5% CO2 condition for 18 hours. The cultured HaCaT cells were exchanged with serum-free DMEM to treat the extract to be evaluated. After that, EZ-cytox was added to each well and reacted for 30 minutes at 37° C. and 5% CO2, and absorbance was measured at 450 nm using a microplate reader. The average absorbance value for each sample group was obtained, and the cell viability was evaluated by comparing it with the absorbance value of the control group.

Filaggrin = experiment: Skin barrier strengthening: filaggrin production in HaCaT cells (ELISA); conditions: 10 μM, 24 hours, untreated = 100
Procedure: HaCaT cells were aliquoted in a 24-well plate at 1.0×10^5 cells/mL and cultured at 37° C., 5% CO2 conditions for 18 hours. It was exchanged with serum-free DMEM, and the carrot stems and leaves extracts and roots extracts of the samples in Table 2 were treated and cultured for 24 hours. After removing the culture medium and washing with PBS for each group, PBS is containing no drug that may affect protein quantification was treated. The protein was collected after lysing the cells by repeating low-temperature and room-temperature incubation. As a control group, a sample treated with retinoic acid (RA) at a concentration of 10 μM was used. Quantification was performed using the Filaggrin-ELISA kit (Elabscience Biotechnology Co., Ltd) and was performed by the method provided by the manufacturer.

hyaluronic acid = experiment: Hyaluronic acid production in HaCaT cells (ELISA); conditions: 24 hours, untreated = 100
Procedure: HaCaT cells were aliquoted in a 24-well plate at 1.0×10^5 cells/mL and cultured at 37° C., 5% CO2 conditions for 18 hours. It was replaced with a serum-free DMEM medium, and the samples in Table 2 were treated and cultured for 24 hours. After that, the culture medium was removed, centrifuged at 15,000 rpm for 5 minutes, and the supernatant was removed and stored frozen (−20° C.) until quantification. As a control group, a sample treated with retinoic acid (RA) at a concentration of 10 μM was used. Enzyme-Linked Immunosorbent Assay (ELISA) was performed using a hyaluronic acid ELISA kit (Elabscience Biotechnology Co., Ltd) and the method provided by the manufacturer.

[1] = test system: thymus and activation regulated chemokine (TARC); experiment: TARC production inhibitory activity in HaCaT cells (ELISA); conditions: IFN (30 ng/ml) + TNF (30 ng/ml) stimulated = 100
Procedure: In order to confirm the atopic treatment effect on the carrot stems and leaves extract according to the present disclosure, atopic thymus and activation regulated chemokine (TARC) was analyzed.
HaCaT cells were aliquoted in a 24-well plate at 1.5×10^5 cells/mL and cultured at 37° C., 5% CO2 conditions for 18 hours. […] Then, the atopic chemokine production content of the supernatant obtained by centrifugation of the culture medium (12,000 rpm, 3 min) was measured. All samples were stored frozen (−20° C.) until quantification. For TARC content, a human enzyme-linked immunosorbent assay (ELISA) kit (R&D Systems Inc., Minneapolis, Minn., USA) was used, and the r^2 value of the standard curve for the standard was 0.99 or more.

SMILES: CC1=C(/C=C/C(C)=C/C=C/C(C)=C/C(=O)O)C(C)(C)CCC1 [Retinoic acid, retinoic acid, reference compound]
- HaCaT cell growth rate (%) (HaCaT cells; 10 μM): 103.8 ± 2.1%
- FLG production (%) (Filaggrin): 157.5 ± 0.13%
- HA production (%) (hyaluronic acid; 10 μM): 153.1 ± 0.14% and 100.0 ± 0.36%

SMILES: CCCCC/C=C\C/C=C\CCCCCCCC(=O)OC[C@@H](O)CO (racemic) [Monolinolein]
- HaCaT cell growth rate (%) (HaCaT cells; 12.5 μM): 106.0 ± 2.6%
- HaCaT cell growth rate (%) (HaCaT cells; 25 μM): 102.2 ± 1.0%
- HaCaT cell growth rate (%) (HaCaT cells; 50 μM): 101.5 ± 1.7%
- HaCaT cell growth rate (%) (HaCaT cells; 100 μM): 122.6 ± 2.1%
- TARC production (%) ([1]; 12.5 μM): 75.2 ± 0.07%
- TARC production (%) ([1]; 25 μM): 37.7 ± 1.59%
- TARC production (%) ([1]; 50 μM): 30.9 ± 1.97%
- HA production (%) (hyaluronic acid; 25 μM): 102.7 ± 0.14%
- HA production (%) (hyaluronic acid; 50 μM): 113.7 ± 0.14%
- HA production (%) (hyaluronic acid; 100 μM): 114.4 ± 0.05%

SMILES: CCCCC/C=C\C/C=C\CCCCCCCC(=O)OCC [Ethyl linoleate, ethyl linoleate]
- HaCaT cell growth rate (%) (HaCaT cells; 12.5 μM): 92.5 ± 3.0%
- HaCaT cell growth rate (%) (HaCaT cells; 25 μM): 92.3 ± 2.0%
- HaCaT cell growth rate (%) (HaCaT cells; 50 μM): 88.9 ± 2.3%
- HaCaT cell growth rate (%) (HaCaT cells; 100 μM): 94.1 ± 3.0%
- TARC production (%) ([1]; 12.5 μM): 78.3 ± 0.10%
- TARC production (%) ([1]; 25 μM): 53.8 ± 0.16%
- TARC production (%) ([1]; 50 μM): 42 ± 0.81%
- HA production (%) (hyaluronic acid; 25 μM): 92.7 ± 0.27%
- HA production (%) (hyaluronic acid; 50 μM): 85.5 ± 0.27%
- HA production (%) (hyaluronic acid; 100 μM): 89.5 ± 0.07%

SMILES: CC/C=C\C/C=C\C/C=C\CCCCCCCC(=O)O [α-Linolenic acid, α-linolenic acid]
- HaCaT cell growth rate (%) (HaCaT cells; 12.5 μM): 97.8 ± 3.6%
- HaCaT cell growth rate (%) (HaCaT cells; 25 μM): 96.1 ± 4.4%
- HaCaT cell growth rate (%) (HaCaT cells; 50 μM): 92.1 ± 3.9%
- HaCaT cell growth rate (%) (HaCaT cells; 100 μM): 106.9 ± 1.0%
- TARC production (%) ([1]; 12.5 μM): 72.6 ± 0.03%
- TARC production (%) ([1]; 25 μM): 45.6 ± 0.51%
- TARC production (%) ([1]; 50 μM): 35.7 ± 1.44%
- HA production (%) (hyaluronic acid; 25 μM): 105.0 ± 0.06%
- HA production (%) (hyaluronic acid; 50 μM): 110.5 ± 0.02%
- HA production (%) (hyaluronic acid; 100 μM): 116.3 ± 0.26%

Source: patent US20220378688A1, “Moisturizing or anti-atopic composition containing fatty acids or fatty acid derivatives” (DAEBONG LS, LTD, priority 2019, published 2022)
